Reference: patent US9708314B2, “Heterocyclic amide compound” (NISSAN CHEMICAL INDUSTRIES, LTD., priority 2013, dated 2017)

Assays:
Assay type in all cases: in vivo
[1] = system: Avena fatua; assay: Test Example 4: herbicidal effect by application to foliage (diluvial soil, plastic box); details: application to foliage, application herbicide amount 320 g/ha
How it was run: (§1)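 Scores run from 0 (herbicidal ratio ≤5%) to 5 (≥90%, almost fully withered) and were assessed three weeks after foliar spraying. Seedlings had been raised for 14 days at 25-30° C in sterilized diluvial soil before treatment, with the emulsion diluted in water to the stated g/ha dose.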

[2] = system: Apera spica-venti.; assay: as above; details: application to foliage, application herbicide amount 320 g/ha
How it was run: as §1

[3] = system: Echinochloa crus-galli var. crus-galli; assay: as above; details: application to foliage, application herbicide amount 320 g/ha
How it was run: as §1

[4] = system: Abutilon theophrasti; assay: as above; details: application to foliage, application herbicide amount 320 g/ha
How it was run: as §1

[5] = system: Digitaria ciliaris; assay: as above; details: application to foliage, application herbicide amount 320 g/ha
How it was run: as §1

[6] = system: Stellaria media; assay: as above; details: application to foliage, application herbicide amount 320 g/ha
How it was run: as §1

[7] = system: Alopecurus myosuroides; assay: as above; details: application to foliage, application herbicide amount 320 g/ha
How it was run: as §1

[8] = system: Amaranthus retroflexus; assay: as above; details: application to foliage, application herbicide amount 320 g/ha
How it was run: as §1

[9] = system: Veronica persica; assay: as above; details: application to foliage, application herbicide amount 320 g/ha
How it was run: as §1

[10] = system: Chenopodium album; assay: as above; details: application to foliage, application herbicide amount 320 g/ha
How it was run: as §1

[11] = system: Galium spurium; assay: as above; details: application to foliage, application herbicide amount 320 g/ha
How it was run: as §1

[12] = system: Setaria viridis; assay: as above; details: application to foliage, application herbicide amount 320 g/ha
How it was run: as §1

[13] = system: Lolium multiflorum Lam.; assay: as above; details: application to foliage, application herbicide amount 320 g/ha
How it was run: as §1

[14] = system: Echinochloa crus-galli var. crus-galli; assay: Test Example 3: herbicidal effect by application to foliage (Wagner pot, water depth 0.1-0.5 cm); details: Nineteenth Table; application to foliage; application herbicide amount 320 g/ha
How it was run: (§2)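 Seeds were sown in alluvial soil in Wagner pots, grown for 14 days at 25–30 °C, then sprayed uniformly on foliage with the emulsified compound diluted to a given rate per hectare. Injury was graded three weeks after treatment from 0 (≤5%) to 5 (≥90%).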

[15] = system: Leptochloa chinensis; assay: as above; details: Nineteenth Table; application to foliage; application herbicide amount 320 g/ha
How it was run: as §2

[16] = system: Cyperus difformis; assay: as above; details: Nineteenth Table; application to foliage; application herbicide amount 320 g/ha
How it was run: as §2

[17] = system: directly sowed Oryza sativa; assay: Test Example 4: effect on crop by application to foliage (diluvial soil, plastic box); details: application to foliage, application herbicide amount 320 g/ha
How it was run: as §1

[18] = system: Zea mays; assay: as above; details: application to foliage, application herbicide amount 320 g/ha
How it was run: as §1

[19] = system: Brassica campestris L.; assay: as above; details: application to foliage, application herbicide amount 320 g/ha
How it was run: as §1

[20] = system: Beta vulgaris ssp. vulgaris; assay: as above; details: application to foliage, application herbicide amount 320 g/ha
How it was run: as §1

[21] = system: Glycine max; assay: as above; details: application to foliage, application herbicide amount 320 g/ha
How it was run: as §1

[22] = system: Triticum aestivum; assay: as above; details: application to foliage, application herbicide amount 320 g/ha
How it was run: as §1

[23] = system: directly sowed Oryza sativa; assay: Test Example 3: effect on crop by application to foliage (Wagner pot, water depth 0.1-0.5 cm); details: Nineteenth Table; application to foliage; application herbicide amount 320 g/ha
How it was run: as §2

Structure (SMILES)	I: herbicidal effect on Avena fatua [1]	L: herbicidal effect on Apera spica-venti. [2]	H: herbicidal effect on Echinochloa crus-galli var. crus-galli [3]	M: herbicidal effect on Abutilon theophrasti [4]	F: herbicidal effect on Digitaria ciliaris [5]	P: herbicidal effect on Stellaria media [6]	J: herbicidal effect on Alopecurus myosuroides [7]	N: herbicidal effect on Amaranthus retroflexus [8]	R: herbicidal effect on Veronica persica [9]	O: herbicidal effect on Chenopodium album [10]	Q: herbicidal effect on Galium spurium [11]	G: herbicidal effect on Setaria viridis [12]	K: herbicidal effect on Lolium multiflorum Lam. [13]	H (herbicidal effect grade) [14]	D (herbicidal effect grade) [15]	E (herbicidal effect grade) [16]	b: effect on crop, directly sowed Oryza sativa [17]	c: effect on crop, Zea mays [18]	g: effect on crop, Brassica campestris L. [19]	f: effect on crop, Beta vulgaris ssp. vulgaris [20]	further results
Cc1cc(-c2nnc3c(C(=O)Nc4nnnn4C)ccc(C(F)(F)F)n23)no1 [2-017]	4 (Herbicidal ratio of 70% or more and less than 90%)	4 (Herbicidal ratio of 70% or more and less than 90%)	5 (Herbicidal ratio of 90% or more (almost completely withered))	5 (Herbicidal ratio of 90% or more (almost completely withered))	5 (Herbicidal ratio of 90% or more (almost completely withered))	5 (Herbicidal ratio of 90% or more (almost completely withered))	3 (Herbicidal ratio of 40% or more and less than 70%)	5 (Herbicidal ratio of 90% or more (almost completely withered))	5 (Herbicidal ratio of 90% or more (almost completely withered))	5 (Herbicidal ratio of 90% or more (almost completely withered))	1 (Herbicidal ratio of 5% or more and less than 20%)	5 (Herbicidal ratio of 90% or more (almost completely withered))	2 (Herbicidal ratio of 20% or more and less than 40%)	5 (Herbicidal ratio of 90% or more (almost completely withered))	5 (Herbicidal ratio of 90% or more (almost completely withered))	5 (Herbicidal ratio of 90% or more (almost completely withered))	5 (Herbicidal ratio of 90% or more (almost completely withered))	1 (Herbicidal ratio of 5% or more and less than 20%)	4 (Herbicidal ratio of 70% or more and less than 90%)	5 (Herbicidal ratio of 90% or more (almost completely withered))	d: effect on crop, Glycine max [21]: 4 (Herbicidal ratio of 70% or more and less than 90%); e: effect on crop, Triticum aestivum [22]: 3 (Herbicidal ratio of 40% or more and less than 70%); b (effect on crop grade) [23]: 5 (Herbicidal ratio of 90% or more (almost completely withered))
CCCc1nnc2c(C(=O)Nc3nnnn3C)ccc(C(F)(F)F)n12 [2-019]	3 (Herbicidal ratio of 40% or more and less than 70%)	4 (Herbicidal ratio of 70% or more and less than 90%)	5 (Herbicidal ratio of 90% or more (almost completely withered))	5 (Herbicidal ratio of 90% or more (almost completely withered))	5 (Herbicidal ratio of 90% or more (almost completely withered))	5 (Herbicidal ratio of 90% or more (almost completely withered))	2 (Herbicidal ratio of 20% or more and less than 40%)	5 (Herbicidal ratio of 90% or more (almost completely withered))	5 (Herbicidal ratio of 90% or more (almost completely withered))	5 (Herbicidal ratio of 90% or more (almost completely withered))	3 (Herbicidal ratio of 40% or more and less than 70%)	5 (Herbicidal ratio of 90% or more (almost completely withered))	2 (Herbicidal ratio of 20% or more and less than 40%)	5 (Herbicidal ratio of 90% or more (almost completely withered))	5 (Herbicidal ratio of 90% or more (almost completely withered))	5 (Herbicidal ratio of 90% or more (almost completely withered))	4 (Herbicidal ratio of 70% or more and less than 90%)	0 (Herbicidal ratio of 5% or less (almost no effect))	4 (Herbicidal ratio of 70% or more and less than 90%)	5 (Herbicidal ratio of 90% or more (almost completely withered))	d: effect on crop, Glycine max [21]: 4 (Herbicidal ratio of 70% or more and less than 90%); e: effect on crop, Triticum aestivum [22]: 3 (Herbicidal ratio of 40% or more and less than 70%); b (effect on crop grade) [23]: 5 (Herbicidal ratio of 90% or more (almost completely withered))
Cn1nnnc1NC(=O)c1ccc(C(F)(F)F)n2c(COc3ccccc3)nnc12 [2-020]	1 (Herbicidal ratio of 5% or more and less than 20%)	1 (Herbicidal ratio of 5% or more and less than 20%)	3 (Herbicidal ratio of 40% or more and less than 70%)	5 (Herbicidal ratio of 90% or more (almost completely withered))	3 (Herbicidal ratio of 40% or more and less than 70%)	4 (Herbicidal ratio of 70% or more and less than 90%)	0 (Herbicidal ratio of 5% or less (almost no effect))	4 (Herbicidal ratio of 70% or more and less than 90%)	4 (Herbicidal ratio of 70% or more and less than 90%)	5 (Herbicidal ratio of 90% or more (almost completely withered))	2 (Herbicidal ratio of 20% or more and less than 40%)	3 (Herbicidal ratio of 40% or more and less than 70%)	1 (Herbicidal ratio of 5% or more and less than 20%)	4 (Herbicidal ratio of 70% or more and less than 90%)	4 (Herbicidal ratio of 70% or more and less than 90%)	4 (Herbicidal ratio of 70% or more and less than 90%)	2 (Herbicidal ratio of 20% or more and less than 40%)	0 (Herbicidal ratio of 5% or less (almost no effect))	3 (Herbicidal ratio of 40% or more and less than 70%)	5 (Herbicidal ratio of 90% or more (almost completely withered))	d: effect on crop, Glycine max [21]: 3 (Herbicidal ratio of 40% or more and less than 70%); e: effect on crop, Triticum aestivum [22]: 1 (Herbicidal ratio of 5% or more and less than 20%); b (effect on crop grade) [23]: 4 (Herbicidal ratio of 70% or more and less than 90%)
